Data: patent publication US20260294857A1, “TREATMENT OF HYPOPARATHYROIDISM USING TRIPHENYL CALCILYTIC COMPOUNDS” (CALCILYTIX THERAPEUTICS, INC., priority 2023, published 2026)

Columns and labels:
[1] = test system: calcium-sensing receptor (CaSR); conditions: individuals with functioning parathyroid tissue; calcilytics (e.g., CLTX-305); cited from earlier work
[2] = biological target: T1, calcium-sensing receptor (CaSR) (Homo sapiens, UniProt P41180); assay: Ongoing open-label phase 2 proof-of-principle study in women with post-surgical hypoparathyroidism (PSH), NCT05735015; format: in vivo
T1 construct: oral CLTX-305 (encaleret) in post-surgical hypoparathyroidism subjects; clinical safety and blood calcium endpoints
T1 sequence (P41180 20-1078): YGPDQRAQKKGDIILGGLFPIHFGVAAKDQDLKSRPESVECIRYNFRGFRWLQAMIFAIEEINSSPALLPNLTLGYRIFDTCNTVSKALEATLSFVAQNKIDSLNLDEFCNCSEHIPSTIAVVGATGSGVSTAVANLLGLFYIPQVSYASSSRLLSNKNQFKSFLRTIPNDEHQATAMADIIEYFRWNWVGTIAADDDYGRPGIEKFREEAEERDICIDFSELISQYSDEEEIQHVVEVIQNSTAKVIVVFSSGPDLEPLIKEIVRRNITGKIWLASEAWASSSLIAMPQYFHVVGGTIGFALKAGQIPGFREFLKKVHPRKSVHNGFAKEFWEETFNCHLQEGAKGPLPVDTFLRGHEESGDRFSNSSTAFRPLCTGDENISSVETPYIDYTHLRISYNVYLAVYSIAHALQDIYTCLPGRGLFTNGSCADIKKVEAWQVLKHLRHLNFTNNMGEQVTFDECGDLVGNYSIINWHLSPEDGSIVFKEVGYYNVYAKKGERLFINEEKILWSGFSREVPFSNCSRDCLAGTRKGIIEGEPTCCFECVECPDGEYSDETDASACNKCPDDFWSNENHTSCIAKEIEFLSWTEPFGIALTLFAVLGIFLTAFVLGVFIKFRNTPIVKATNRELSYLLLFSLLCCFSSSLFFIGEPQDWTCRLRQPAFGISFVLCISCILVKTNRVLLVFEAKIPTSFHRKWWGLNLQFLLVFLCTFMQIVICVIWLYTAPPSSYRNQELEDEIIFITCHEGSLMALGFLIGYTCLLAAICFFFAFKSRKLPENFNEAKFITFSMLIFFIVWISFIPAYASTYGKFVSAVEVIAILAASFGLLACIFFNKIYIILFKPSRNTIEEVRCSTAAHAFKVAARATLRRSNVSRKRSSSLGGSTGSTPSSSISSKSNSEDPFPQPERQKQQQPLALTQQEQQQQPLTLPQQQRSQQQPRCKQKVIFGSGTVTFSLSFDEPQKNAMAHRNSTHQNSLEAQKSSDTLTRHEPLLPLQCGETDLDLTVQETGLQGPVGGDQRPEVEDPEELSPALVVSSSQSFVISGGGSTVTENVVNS
From the text: Title: Phase 2 study of the PTH-independent Effects of formula (I) (e.g., CLTX-305) on Mineral Homeostasis in subjects with post-surgical hypoparathyroidism (PSH).
Study Description: This will be a single-site, proof-of-principle, open-label study to explore the PTH-independent effects of formula (I) (e.g., CLTX-305) on calcium homeostasis in subjects with low or undetectable PTH levels as a result of neck surgery (PSH).
Primary Endpoint: Percent change in Fractional Excretion of Calcium (FECa) from baseline (Day −1) to the final day of treatment (Day 6 or the last measurement while on formula (I) (e.g., CLTX-305)). FECa calculated using fasting blood levels and spot urine collection.
Secondary Endpoints: Proportion of subjects who achieve a concomitant normal fasting blood calcium (albumin-corrected calcium >8.5 mg/dL) and a normal 24-hour urinary calcium level (<250 mg/24 hours for women, <300 mg/24 hours for men) on formula (I) (e.g., CLTX-305) at any point between day 1 and day 5.
• Change in blood iPTH comparing average baseline iPTH to average peak iPTH on formula (I) (e.g., CLTX-305). The average baseline iPTH will include all baseline iPTH levels from the screening visit, Day −1, and pre-dose on Day 1. The average peak iPTH will average the peak iPTH levels on every day the subject is on formula (I) (e.g., CLTX-305) (days 1 to 5). An increase in iPTH will be considered clinically significant if there is an increase both by 50% AND by more than […]. • Change in 1,25-(OH)2 Vitamin D on formula (I) (e.g., CLTX-305) comparing the maximal level prior to receiving calcitriol (On Days 3-5) to baseline (Average of Day 1 Pre-dose levels). Increase will be considered significant if there is an increase of more than 50%. Subjects who receive calcitriol prior to Day 3 will be excluded. • Percent change in Fractional Excretion of Calcium (FECa) from baseline […] to the final day of treatment (Day 6 or the last measurement while n encaleret). FECa calculated using fasting blood levels and spot urine collection. • Pharmacodynamic endpoints measured over 5 days of formula (I) (e.g., CLTX-305) therapy: • Blood iPTH—Absolute levels and change from baseline • Albumin-corrected blood calcium—Absolute levels and change from baseline • Ionized Calcium—Absolute levels and change from baseline • Urinary calcium clearance (fractional excretion and 24-hour total excretion)—Absolute levels and change from baseline • Serum levels of 1,25-(OH)2 Vitamin D—Absolute levels and change from baseline • Blood intact FGF23 (iFGF23) and C-terminal FGF23 (cFGF23)—Absolute levels and change from baseline • Urine cAMP and citrate—Absolute levels and change from baseline • Blood bone resorption marker, collagen cross-linked C-telopeptide (CTx)—Absolute levels and change from baseline • Blood bone formation marker, blood procollagen type 1 N-propeptide (P1NP)—Absolute levels and change from baseline • Change in components of urine including: supersaturation, sodium, potassium, calcium, magnesium, chloride, phosphorus, sulfate, citrate excretion, oxalate, pH, uric acid, creatinine, osmolality, ammonium, urea nitrogen, protein catabolic rate • PK parameters such as maximum plasma concentration Cmax), time to maximum plasma concentration (tmax), apparent terminal half-life (t½) • Subgroup analysis of other primary, secondary, and tertiary endpoints
Intervention: CLTX-305 will be provided as an oral film-coated tablet. Each tablet contains 54 mg of formula (I) on a salt-free and anhydrous basis (i.e., 60 mg of CLTX-305). Subjects will receive 3 tablets twice a day (BID).
The investigational medicinal product (IMP), formula (I) (e.g., CLTX-305), will be provided as film-coated tablets containing the active ingredient formula (I) on a salt-free and anhydrous basis provided in 54 mg dosage strength. Subjects will receive active ingredient formula (I) 162 mg (i.e., 180 mg CLTX-305) (3 tablets) BID per protocol with water. […]

osteoporosis = conditions: late phase trials; postmenopausal women with osteoporosis; cited from earlier work
[3] = thiazide discontinuation before treatment; cited from earlier work

**Q.** What does the source list for `Cc1cc(-c2ccccc2[C@@H](C)OC[C@H](O)CNC(C)(C)Cc2ccc(Cl)c(F)c2)ccc1C(=O)O` [CLTX-305]?
**A.** Blood calcium levels, in words [1]: increased blood calcium levels; PTH secretion [1]: increase PTH secretion; Urinary calcium excretion, in words [1]: decrease urinary calcium excretion; PTH after transient increase ([2]; after the 30 minutes increase, baseline 7.4 pg/mL, n=4): returned to near baseline levels; FECa, effect in words ([2]; first four participants with PSH): reduced FECa; Serious adverse events ([2]; four women with PSH): no serious adverse events reported; Treatment-related adverse events (AEs) ([2]; four women with PSH): mild hypercalcemia causing headache in 1 participant; Bone turnover markers ([2]; four women with PSH, 162 mg every 12 hours, up to 10 doses): normal and did not change; PTH, transient increase ([2]; mean (range), 30 minutes after the first dose, baseline 7.4 pg/mL (range 4.6-10.1; nl 15-65), n=4): 13.0 (4.5-18.1) pg/mL; Decrease in fractional excretion of calcium (FECa) ([2]; mean (range), fasting, 12 hours after last dose vs fasting baseline pre-dose, four women with PSH, CLTX-305 162 mg every 12 hours for up to 10 doses): 52% (34-78); Albumin-corrected blood calcium ([2]; mean (range), fasting, 12 hours after last dose, baseline 8.4 mg/dL (range 8.1-8.6; nl 8.4-10.2), 162 mg every 12 hours, up to 10 doses, n=4): 9.3 (8.6-10.7) mg/dL; Urinary calcium excretion ([2]; mean (range), on treatment, baseline 348 mg/day (range 204-501; nl<250), 162 mg every 12 hours, up to 10 doses, n=4): 169 (76-350) mg/day; Participants who discontinued calcium supplementation to maintain eucalcemia ([2]; of four women with PSH, all received calcium supplementation initially): 1 participant; Participants who required re-initiation of low-dose calcitriol to maintain eucalcemia ([2]; of four women with PSH, calcitriol 0.25 mcg daily): 3; Normalization of urinary calcium excretion ([2]; of four women with PSH, nl<250 mg/day): 3 participants; 24-hour urine calcium despite elevated blood calcium ([2]; one participant with mild hypercalcemia): < 200 mg/day; Time for which blood calcium continued to be mildly elevated after the last dose ([2]; one participant with mild hypercalcemia, calcium and calcitriol supplementation discontinued): 60 h; Decrease in urinary calcium excretion in the fourth participant ([2]; one participant without normalization, 162 mg every 12 hours, up to 10 doses): 30%; Bone mineral density (BMD) efficacy (osteoporosis): failed to demonstrate efficacy on endpoints of bone mineral density (BMD)

**Q.** Which 5 half-lives [3] does the source give for `NS(=O)(=O)c1cc2c(cc1Cl)N=CNS2(=O)=O` [chlorothiazide] here?
**A.** 10 h

**Q.** Which 5 half-lives [3] does the source give for `NS(=O)(=O)c1cc(C2(O)NC(=O)c3ccccc32)ccc1Cl` (stereo not shown) [chlorthalidone] here?
**A.** 300 h

**Q.** Which 5 half-lives [3] does the source give for `NS(=O)(=O)c1cc2c(cc1Cl)NCNS2(=O)=O` [hydrochlorothiazide] here?
**A.** 75 h
